# Values of other authors, collected in patent US4971799A, “Percutaneous-administration-type pharmaceutical preparation of nitroglycerin” (Sekisui Kagaku Kogyo Kabushiki Kaisha, priority 1987, dated 1990).
# Settings: intravenous injection
compound,measurement,setting,value
O=[N+]([O-])OCC(CO[N+](=O)[O-])O[N+](=O)[O-] [nitroglycerin],Duration of effects,,effects are lost after a very short period of time
same,Side effects,high blood level for a short period,"headache, dizziness, orthostatic hypotension"
